Results taken from patent US11162129B2, “Photoprotective mixtures as imaging reagents in sequencing-by-synthesis” (IsoPlexis Corporation, priority 2016, dated 2021).

Source text: Components in various photoprotective imaging mixtures as described herein have been tested for solubility and stability against precipitation and discoloration in imaging solution formulation using […] as the base buffer.

For `CCOC(=O)c1ccc(O)c(O)c1` [3,4-Dihydroxybenzoic Acid Ethyl Ester, 3,4-dihydroxybenzoic acid ethyl ester], which “optimal concentration window in imaging solution formulation” value (“optimal concentration window” for short) is on record?
Its value is 10 to 20 mM.

With `C[N+](C)(C)CC(O)CC(=O)[O-]` (stereo not drawn) [Carnitine, carnitine] as the compound, how does the “optimal concentration window” value read?
The value was 5 to 50 mM.

For `Cc1c(C)c2c(c(C)c1O)CCC(C)(C(=O)O)O2` (stereo not drawn) [Trolox, 6-hydroxy-2,5,7,8-tetramethylchromane-2-carboxylic acid], which “optimal concentration window” value is on record?
Its value is 5 to 15 mM.
